Series [1] can be described thus: Dog bioavailability study. On the set-up: species or system beagle dogs. The settings on record: in vivo, po, 25 mg/kg. On the procedure:
The dogs are not fasted before dosing, and have free access to water. Every day of the treatment, a half food ration is provided after the T0 blood sampling, 8 to 17 min before treatment, and the second half ration is given just after dosing or 1 h after treatment for period 2. A 3 days washout period is ensured between treatments. […] The capsule composition is described in Table XX below. The capsules are administered orally with water (5-10 mL), to provide good oesophageal transit. Each animal is checked at least once daily. Blood is collected from the jugular vein into lithium heparinised tubes at T0 (before food administration) and then at 1 […], and 24 h post treatment. Plasma is then obtained from blood by centrifugation (2500 g for 10 min at 4° C.), and stored at -20° C. until analysis. […] After vortex mixing and centrifugation at 4° C., the supernatants are diluted with a 0.5 volume of HPLC grade water in a midi-eppendorf 96-well plate. The plate is sealed and shaken to ensure sample homogeneity prior to analysis. […] Pharmacokinetic analysis is performed using WinNonlinTM software version 5.3, using concentrations from individual animals. Non-compartmental analysis is applied to determine the PK parameters (Cmax, Tmax, AUC0-last, t1/2, etc. . . . ) Concentrations below the limit of detection are set to zero for descriptive statistics and PK parameter calculations.

The nature of series [2]: Complementary salt analysis (stability, hygroscopicity). Conditions: for Hygroscopicity: salt from Protocol 4; for Salt stability: stability evaluation 1 week at 40° C./75% Relative humidity. In kind it is physicochemical.
Series [3] can be described thus: Dissolution in solvents (salt Protocol 1). In kind it is physicochemical. The settings on record: DCM, up to 20 relative volumes, agitated at 50° C. The text has this:
The solvent is selected from isopropanol, ethanol, methanol, isopropyl acetate, THF, TBME, acetone, methyl ethyl ketone, DCM, and MeCN.

Structures can show the parent of a compound that is named as a salt.

For `Cl.O.O.O.O=C(Nc1nc2cccc(-c3ccc(CN4CCS(=O)(=O)CC4)cc3)n2n1)C1CC1` [Compound 1.HCl.3H2O], in series [1], the Tmax is reported as 2.0 h.
Turning to `O=C(O)/C=C\C(=O)O` [Compound 1 maleic acid salt], in series [2], the Hygroscopicity result was “non-hygroscopic”.
Take `O=C(Nc1nc2cccc(-c3ccc(CN4CCS(=O)(=O)CC4)cc3)n2n1)C1CC1` [Compound 1, cyclopropane carboxylic acid {5-[4-(1,1-dioxo-thiomorpholin-4-ylmethyl)-phenyl]-[1,2,4]triazolo[1,5-a]pyridin-2-yl}-amide]: in series [3], the Dissolution in solvent result was “almost full dissolution”.
As for `Cl.O=C(Nc1nc2cccc(-c3ccc(CN4CCS(=O)(=O)CC4)cc3)n2n1)C1CC1` [Compound 1 HCl salt], in series [2], the Hygroscopicity result is given as “non-hygroscopic” and the Salt stability entry is “stable”.
Consider `O=C(Nc1nc2cccc(-c3ccc(CN4CCS(=O)(=O)CC4)cc3)n2n1)C1CC1.O=C(O)/C=C\C(=O)O` [Compound 1 maleic acid salt], for which the Salt stability entry in series [2] is “stable”.

Broadly, the Tmax is the time from dosing to the highest level.

Source of the values: patent US10919890B2, “Salts and pharmaceutical compositions thereof for the treatment of inflammatory disorders” (GALAPAGOS NV, priority 2014, dated 2021).
